In ChEMBL document CHEMBL1201862, “PubChem BioAssay data set” (2004):
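Each compound was tested at five concentrations against cells in 96-well plates for 48 hours. Abbreviation: GI50, concentration required for 50% inhibition of growth.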 Active and inactive are the calls of the source. Rule as the data show it: active = GI50 up to about 1.1 µM and inactive = higher.

Tests used:
Experiment in all cases: NCI tumour cell line growth inhibition, 48 h
[1] = test system: SW-620
[2] = test system: HCT-15
[3] = test system: Malme-3M
[4] = test system: RPMI-8226
[5] = test system: NCI-H522
[6] = test system: SK-MEL-28
[7] = test system: UACC-257
[8] = test system: CCRF-CEM
[9] = test system: UACC-62
[10] = test system: NCI-H226
[11] = test system: KM-20L2
[12] = test system: OVCAR-8
[13] = test system: HOP-92
[14] = test system: HOP-62
[15] = test system: KM12
[16] = test system: NCI-H23

| Structure (SMILES) | GI50 [1] | GI50 [2] | GI50 [3] | GI50 [4] | GI50 [5] | GI50 [6] | GI50 [7] | GI50 [8] | GI50 [9] | GI50 [10] | GI50 [11] | GI50 [12] | GI50 [13] | GI50 [14] | GI50 [15] | GI50 [16] |
| --- | --- | --- | --- | --- | --- | --- | --- | --- | --- | --- | --- | --- | --- | --- | --- | --- |
| Cc1cccc2c1c1ccc3c(c1n2C)C(=O)C=CC3=O | 2.03 µM (inactive) | 5.18 µM | 4.33 µM (inactive) | 2.04 µM (inactive) | 1.51 µM (inactive) | 9.71 µM (inactive) | 11.4 µM (inactive) | 0.468 µM (active) | 13.2 µM (inactive) | 17.3 µM (inactive) | 16.2 µM (inactive) | 5.37 µM (inactive) | 2.08 µM (inactive) | 19 µM (inactive) | 13.2 µM (inactive) | 13.5 µM (inactive) |
| CC(=O)CC(=O)Nc1ccc(OS(N)(=O)=O)cc1 | > 100 µM (inactive) | > 100 µM | > 100 µM (inactive) | > 100 µM (inactive) | > 100 µM (inactive) | > 100 µM (inactive) | > 100 µM (inactive) | > 100 µM (inactive) | > 100 µM (inactive) | > 100 µM (inactive) | > 100 µM (inactive) | > 100 µM (inactive) | > 100 µM (inactive) | > 100 µM (inactive) | > 100 µM (inactive) | > 100 µM (inactive) |
| C=C(c1ccccc1)[C@@]1(O)CCCC[C@H]1NC(c1ccccc1)c1ccccc1 | 14.4 µM (inactive) | 10.9 µM | 16.1 µM (inactive) | 3.94 µM (inactive) | 8.85 µM (inactive) | 15.5 µM (inactive) | 10.5 µM (inactive) | 4.34 µM (inactive) | 13.1 µM (inactive) | 6.97 µM (inactive) | 13.8 µM (inactive) | 13.8 µM (inactive) | 12.6 µM (inactive) | 15.1 µM (inactive) | 11.1 µM (inactive) | 8.3 µM (inactive) |
| COC(=O)C(=O)C(CC(=O)Nc1cc(Cl)ccc1Cl)C(=O)OC (centres undefined) | > 100 µM (inactive) | > 100 µM | > 100 µM (inactive) | > 100 µM (inactive) | > 100 µM (inactive) | > 100 µM (inactive) | > 100 µM (inactive) | > 100 µM (inactive) | > 100 µM (inactive) | > 100 µM (inactive) | > 100 µM (inactive) | > 100 µM (inactive) | > 100 µM (inactive) | > 100 µM (inactive) | > 100 µM (inactive) | > 100 µM (inactive) |
